Measurements reported in patent US20100260737A1, “COMBINATION BETWEEN AN ISOTHIOCYANATE AND LEVODOPA FOR PARKINSON'S DISEASE TREATMENT” (priority 2007, published 2010).

Key:
[1] = preliminary phase I study (Shapiro et al. 2006); cited from earlier work
SH-SY5Y cells [2] = test: H2O2-induced neuronal apoptosis after pre-treatment; type: cell-based; details: for toxic effects in SH-SY5Y cells: SUL 0.63 μM, L-DOPA 25 μM
Description: It was also evaluated whether the combination could have synergistic effects against neuronal apoptosis induced by H2O2, an oxidant agent in the CNS. In particular, apoptosis is measured 15 h later than 3 h treatment with H2O2 (300 μM).

neurons = details: prolonged SUL treatment, in vitro; cited from earlier work
SH-SY5Y cells [3] = test: L-DOPA-induced neurotoxicity, pulse/chase treatment, Annexin-V/propidium iodide double staining

Structure (SMILES)	toxicity in humans [1]	toxic effects in SH-SY5Y cells (SH-SY5Y cells [2])	effect against 1 methyl-4-phenyl-1,2,3,6-tetrahydropyridine (neurons)	protection of neurons against 6-hydroxydopamine (neurons)	protection of neurons against H2O2 damage (neurons)	L-DOPA-induced apoptosis, post-treatment (SH-SY5Y cells [3]; SUL 2.5 μM added after L-DOPA (400 μM) treatment, FIG. 3)	L-DOPA-induced apoptosis, co-treatment (SH-SY5Y cells [3]; SUL 0.63-2.5 μM co-treated with L-DOPA 400 μM, FIG. 2)	H2O2-induced apoptosis after L-DOPA pre-treatment (SH-SY5Y cells [2]; pre-treatment 24 h, L-DOPA 25-100 μM tested, effect at more than 50 μM, H2O2 300 μM 3 h, read 15 h later, FIG. 4)
C[S+]([O-])CCCCN=C=S (stereo not drawn) [SUL, 4-(methylsulfinyl)butyl isothiocyanate]	absence of toxicity	did not show any toxic effects	does not show any effect	protects neurons	protects neurons	significant decrease of apoptosis	dose-dependent inhibitory effect	
N[C@@H](Cc1ccc(O)c(O)c1)C(=O)O [L-DOPA, 3,4-dihydroxyphenylalanine]		did not show any toxic effects						significantly decreased H2O2-induced apoptosis
